Source: patent publication US10875876B2, “Cyclized sulfamoylarylamide derivatives and the use thereof as medicaments for the treatment of hepatitis B” (priority 2015, dated 2020)
One block for each compound: values may come before it.

How the values were obtained:
[1] = tested on: HBV; test: anti HBV activity, HepG2.117 cell line, intracellular HBV DNA by realtime PCR; type: cell-based; conditions: Hepatitis B virus, HepG2.117, 72 h, HepG2.117 cell line (Tet-off), 3 days of treatment, intracellular HBV DNA quantified by realtime PCR; read-out: HBV-AVE-HepG2.117 EC50
In short: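 HepG2.117 cells, a Tet-off line that replicates HBV without doxycycline, were induced and then treated in duplicate with serially diluted compound. After 3 days, intracellular HBV DNA was quantified by real-time PCR with an HBV-specific primer set and probe.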

[2] = Cytotoxicity in HepG2 cells, Resazurin assay; conditions: human, HepG2 cells, TOX-HepG2-4 d CC50 (μM), HepG2 cells incubated for 4 days, viability by Resazurin assay

Structure (SMILES): CC1CCc2c(cn(C)c2C(=O)Nc2ccc(F)c(F)c2)S(=O)(=O)N1 (stereo not drawn)
melting point: 229.8 °C

Structure (SMILES): Cn1cc2c(c1C(=O)Nc1ccc(F)c(F)c1)OC[C@H](C(O)C1CC1)NS2(=O)=O (stereo partly drawn)
melting point: 244.8 °C

Structure (SMILES): Cn1cc2c(c1C(=O)Nc1ccc(F)c(C(F)F)c1)OC[C@H](C(O)C1CC1)NS2(=O)=O (stereo partly drawn)
melting point: 240.7 °C

Structure (SMILES): Cn1cc2c(c1C(=O)Nc1ccc(F)c(C#N)c1)OC[C@H](C(O)C1CC1)NS2(=O)=O (stereo partly drawn)
melting point: 233.9 °C

Structure (SMILES): CCC(O)[C@H]1COc2c(cn(C)c2C(=O)Nc2ccc(F)c(C#N)c2)S(=O)(=O)N1 (stereo partly drawn)
melting point: 252.2 °C

Structure (SMILES): CCC(O)[C@H]1COc2c(cn(C)c2C(=O)Nc2ccc(F)c(C(F)F)c2)S(=O)(=O)N1 (stereo partly drawn)
melting point: 224.5 °C

Structure (SMILES): CCC(O)[C@H]1COc2c(cn(C)c2C(=O)Nc2ccc(F)c(F)c2)S(=O)(=O)N1 (stereo partly drawn)
melting point: 214.6 °C

Structure (SMILES): CC(NCC(F)(F)F)C1CCc2c(cn(C)c2C(=O)Nc2cc(F)c(F)c(F)c2)S(=O)(=O)N1 (stereo not drawn)
melting point: 216.2 °C

melting point: 220.8 °C
Structure (SMILES): CC1C=Cc2c(csc2C(=O)Nc2ccc(F)c(F)c2)S(=O)(=O)N1 (stereo not drawn)

melting point: 221.5 °C
Structure (SMILES): Cc1sc2c(c1C(=O)Nc1ccc(F)c(F)c1)OCC(C)NS2(=O)=O (stereo not drawn)

Structure (SMILES): Cn1cc2c(c1C(=O)Nc1ccc(F)c(F)c1)OCC1(CCN(Cc3ccccc3)C1)NS2(=O)=O (stereo not drawn) [Compound 216, 1′-benzyl-N-(3,4-difluorophenyl)-7-methyl-1,1-dioxo-spiro[2,4-dihydropyrrolo[3,4-b][1,4,5]oxathiazepine-3,3′-pyrrolidine]-6-carboxamide]
EC50 [1]: 34 nM | CC50 at 4 days [2]: > 25 µM

Structure (SMILES): C[C@@H]1NS(=O)(=O)c2cn(C)c(C(=O)Nc3ccc(F)c(F)c3)c2O[C@H]1C [compound 229]
EC50 [1]: > 500 nM | CC50 at 4 days [2]: > 25 µM

Structure (SMILES): C[C@@H]1Oc2c(cn(C)c2C(=O)Nc2ccc(F)c(F)c2)S(=O)(=O)N[C@@H]1C [compound 230]
EC50 [1]: > 500 nM | CC50 at 4 days [2]: > 25 µM

Structure (SMILES): C[C@H]1NS(=O)(=O)c2cn(C)c(C(=O)Nc3ccc(F)c(F)c3)c2O[C@@H]1C [compound 231]
EC50 [1]: > 500 nM | CC50 at 4 days [2]: > 25 µM

Structure (SMILES): Cc1ccc(NC(=O)c2c(F)ccc3c2OC[C@H](C(C)C)NS3(=O)=O)cc1F [compound 232]
EC50 [1]: > 500 nM | CC50 at 4 days [2]: > 25 µM

Structure (SMILES): C[C@@H]1Oc2c(cn(C)c2C(=O)Nc2ccnc(C(F)F)c2)S(=O)(=O)N[C@@H]1CO [compound 233]
EC50 [1]: > 500 nM | CC50 at 4 days [2]: > 25 µM

Structure (SMILES): C[C@@H]1Oc2c(cn(C)c2C(=O)Nc2ccc(F)c(C(F)F)c2)S(=O)(=O)N[C@@H]1CO [compound 234]
EC50 [1]: > 500 nM | CC50 at 4 days [2]: > 25 µM

Structure (SMILES): C=C1c2c(cn(C)c2C(=O)Nc2ccc(F)c(F)c2)S(=O)(=O)NC1C(C)C (stereo not drawn) [compound 237]
EC50 [1]: > 500 nM | CC50 at 4 days [2]: > 25 µM

Structure (SMILES): C=C1c2c(cn(C)c2C(=O)Nc2ccc(F)c(C(F)F)c2)S(=O)(=O)NC1C(C)C (stereo not drawn) [compound 238]
EC50 [1]: 77 nM | CC50 at 4 days [2]: > 25 µM

Structure (SMILES): CC(C)[C@H]1Oc2c(cn(C)c2C(=O)Nc2ccc(F)c(C#N)c2)S(=O)(=O)N[C@@H]1CO [compound 239]
EC50 [1]: > 500 nM | CC50 at 4 days [2]: > 25 µM

Structure (SMILES): CC(C)[C@H]1Oc2c(cn(C)c2C(=O)Nc2ccc(F)c(F)c2)S(=O)(=O)N[C@@H]1CO [compound 240]
EC50 [1]: > 250 nM | CC50 at 4 days [2]: > 25 µM

Structure (SMILES): CC(C)[C@@H]1Oc2c(cn(C)c2C(=O)Nc2ccc(F)c(F)c2)S(=O)(=O)N[C@H]1CO [compound 241]
EC50 [1]: > 250 nM | CC50 at 4 days [2]: > 25 µM

Structure (SMILES): Cn1cc2c(c1C(=O)Nc1ccc(F)c(F)c1)OCC(C(=O)O)NS2(=O)=O (stereo not drawn) [compound 242]
EC50 [1]: > 130 nM | CC50 at 4 days [2]: > 25 µM

Structure (SMILES): COC(=O)C1COc2c(cn(C)c2C(=O)Nc2ccc(F)c(F)c2)S(=O)(=O)N1 (stereo not drawn) [compound 243]
EC50 [1]: > 500 nM | CC50 at 4 days [2]: > 25 µM

Structure (SMILES): CC1CCc2c(nn(C)c2C(=O)Nc2ccc(F)c(F)c2)S(=O)(=O)N1 (stereo not drawn) [compound 246]
EC50 [1]: > 130 nM | CC50 at 4 days [2]: > 25 µM

Structure (SMILES): Cn1cc2c(c1C(=O)Nc1ccnc(C(F)F)c1)C=CC(C(F)F)NS2(=O)=O (stereo not drawn) [compound 247]
EC50 [1]: > 130 nM | CC50 at 4 days [2]: > 25 µM
